Legend:
[1] = Inhibition of wild type EGFR in human HT-29 cells assessed as cell growth inhibition measured after 72 hrs by Celltiter-Glo luminescent cell viability assay
[2] = Inhibition of wild type EGFR in human HepG2 cells assessed as cell growth inhibition measured after 72 hrs by Celltiter-Glo luminescent cell viability assay
[3] = Inhibition of wild type EGFR in human A-431 cells assessed as cell growth inhibition measured after 72 hrs by Celltiter-Glo luminescent cell viability assay
[4] = Inhibition of wild type EGFR in human MCF7 cells assessed as cell growth inhibition measured after 72 hrs by Celltiter-Glo luminescent cell viability assay

C=CCSSCCC(=O)OCCCOc1cc2ncnc(Nc3cccc(Br)c3)c2cc1OC
IC50 [1]: > 10 µM
IC50 [2]: > 10 µM
IC50 [3]: 6.7 µM
IC50 [4]: 7.31 µM

From BindingDB's records for doi:10.1016/j.ejmech.2020.112522 (Xuzhou Medical University, 2020)
